Reference: ChEMBL document CHEMBL2440108, “Synthesis and enzymatic evaluation of phosphoramidon and its β anomer: Anomerization of α-l-rhamnose triacetate upon phosphitylation” (Bioorg Med Chem, 2013)
pIC50, pKd, pKi: −log10 of the molar value.

Legend:
Thermolysin [1] = target: T1, Thermolysin (Bacillus thermoproteolyticus, UniProt P00800); experiment: Inhibition of Bacillus thermoproteolyticus thermolysin using […] as substrate at pH 7.5 after 15 mins by Henderson plot analysis
T1 sequence (P00800 whole entry): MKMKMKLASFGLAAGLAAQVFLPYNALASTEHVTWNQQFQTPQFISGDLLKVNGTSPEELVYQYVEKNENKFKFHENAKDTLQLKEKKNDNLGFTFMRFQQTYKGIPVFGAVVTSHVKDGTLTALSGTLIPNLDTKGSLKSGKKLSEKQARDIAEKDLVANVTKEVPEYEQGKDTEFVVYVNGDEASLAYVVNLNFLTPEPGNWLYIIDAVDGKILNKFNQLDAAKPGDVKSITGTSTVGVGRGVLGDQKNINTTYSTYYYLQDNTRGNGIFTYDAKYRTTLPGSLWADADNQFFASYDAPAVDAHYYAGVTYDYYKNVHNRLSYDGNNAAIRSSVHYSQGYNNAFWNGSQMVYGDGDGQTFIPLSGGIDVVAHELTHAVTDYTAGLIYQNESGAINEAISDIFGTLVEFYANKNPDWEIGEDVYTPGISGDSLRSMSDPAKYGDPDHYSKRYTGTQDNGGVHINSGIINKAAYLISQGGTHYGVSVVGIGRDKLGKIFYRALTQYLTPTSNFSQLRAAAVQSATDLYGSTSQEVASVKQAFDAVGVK

Thermolysin [2] = target: T1, Thermolysin; experiment: Inhibition of Bacillus thermoproteolyticus thermolysin
[3] = Inhibition of endothelin-converting enzyme (unknown origin); design: species or system Homo sapiens
Thermolysin [4] = target: T1, Thermolysin; experiment: Binding affinity to Bacillus thermoproteolyticus thermolysin at pH 7.5 after 15 mins by fluorescence spectrophotometry

Compound	pKi (Thermolysin [1])	pKi (Thermolysin [2])	pIC50 [3]	pKd (Thermolysin [4])
CC(C)C[C@H](NP(=O)(O)O[C@@H]1O[C@@H](C)[C@H](O)[C@@H](O)[C@H]1O)C(=O)N[C@@H](Cc1c[nH]c2ccccc12)C(=O)O	7.52	7.49	6.16	–
CC(C)C[C@H](NP(=O)(O)O[C@H]1O[C@@H](C)[C@H](O)[C@@H](O)[C@H]1O)C(=O)N[C@@H](Cc1c[nH]c2ccccc12)C(=O)O	6.55	–	–	6.68
